In US10233205B2, “Magnetic resonance imaging contrast agent capable of detecting hydrogen peroxide and reducing reactive oxygen species” (Auburn University, priority 2015, dated 2019):
“Also recorded” adds a separate entry of the source.

Tests used:
[1] = Stability in aerobic solution / to pH; format: physicochemical
Protocol: (§1) Over this time, collected UV/vis spectra (FIGS. 2 & 3) display changes in the region between 200 nm and 300 nm which are consistent with the oxidation of the quinol to a para-quinone. Past 24 h, the solution begins to turn brown, consistent with oxidation of the manganese to Mn(III) and/or Mn(IV). For the spectrophotometric analysis, the Fe(ClO4)2 solution was added to a MeCN solution containing 0.10 mM [Mn(Hptp1)(MeCN)]^2+; the mixture was scanned at 0 min (dashed red), 30 min (dashed pink), and 60 min (dashed blue). […] At 15 h, approximately 11% of the Mn(II) has been displaced by Fe(II) as indicated by data in FIG. 3.
(§2) The stability of 3 to air and adventitious metal ions was assessed primarily by UV/vis spectroscopy. […] Complex 3, however, is susceptible to metal exchange. When equimolar amounts of 3 and Fe(ClO4)2 are mixed in MeCN, 80% of the Mn(II) is replaced by Fe(II) by 3 h.

[2] = T1-weighted relaxivity (r1) on 3 T clinical MRI scanner; format: physicochemical; details: 50 mM HEPES pH 7.00, 3 T
[3] = DPPH free radical scavenging assay; format: biochemical; details: Example 1
Protocol: An alternative assessment of the Mn(II) complexes' anti-oxidant properties relied upon the DPPH assay. Aqueous solutions of either 1, 2, or ascorbic acid were added to a solution of 0.10 mM DPPH in MeOH, such that the final reaction volume was 0.2 mL. Samples were incubated in the dark for 30 min at room temperature. Spectrophotometric measurements were subsequently performed at 517 nm using a Molecular Devices Spectramax Plus. This wavelength corresponds to the λmax of the reduced product. Experiments were performed in triplicate and repeated twice.
The anti-oxidant properties of 1 and 2 were also assessed using the DPPH assay (DPPH=2,2-diphenyl-1-picrylhydrazyl radical hydrate), which evaluates the ability of a compound to donate hydrogen atoms to DPPH to yield the corresponding hydrazine. The anti-oxidants were added to DPPH and incubated in the dark for 30 min at room temperature. Spectroscopic measurements were performed at 517 nm. The data were normalized to the absorbance in the presence of vehicle. All experiments were performed in triplicate and repeated twice.
Complex 3 is also a competent […] as assessed by the DPPH assay (FIG. 33), which tests the abilities of compounds to donate hydrogen atoms to 2,2-diphenyl-1-picrylhydrazyl radical hydrate. […] The data were normalized to the absorbance in the presence of vehicle. […] The hydrazine product is monitored by UV/vis.

[4] = Metal exchange with Fe(ClO4)2 followed by UV/vis; format: physicochemical; details: 0.10 mM complex + 0.10 mM Fe(ClO4)2, MeCN
Protocol: as §1, §2

[5] = Potentiometric pH titrations, Hyperquad model
Description: The speciation in water was more rigorously probed with potentiometric pH titrations. […] The quinolic protons likely deprotonate at higher pH values (pKa˜10), but we were unable to obtain the high pH data necessary to confirm this.
The data were fit to a model containing the protonated forms of the free ligand and four Mn(II) complexes with the ligand in various protonation states: [Mn(H2qtp2)], [Mn(H3qtp2)]^+, [Mn(H4qtp2)]^2+, and [Mn(H4qtp2)]^3+ (Scheme 4).

CC#N.O=S(=O)([O-])C(F)(F)F.O=S(=O)([O-])C(F)(F)F.[Mn+2].[O-]c1ccc(O)cc1CN(CCN(Cc1ccccn1)Cc1ccccn1)Cc1ccccn1 [Complex 1, Acetonitrilo(N-(2,5-dihydroxy-benzyl)-N,N′,N′-tris(2-pyridinylmethyl)-1,2-ethanediamine)manganese(II) triflate]
stability in aerobic solution [1]: sufficiently stable in aerobic water solutions; also recorded: slightly sensitive towards oxygen
r1 after addition of KO2 ([2]; 2 mM KO2): 5520 M⁻¹ s⁻¹
r1 after addition of NaClO ([2]; 10 mM NaClO): 4.82 mM⁻¹ s⁻¹
r1 of fully oxidized sensor ([2]; oxidized by DDQ): 5.56 mM⁻¹ s⁻¹

CC#N.Cc1ccc(O)c(CN(CCN(Cc2ccccn2)Cc2ccccn2)Cc2ccccn2)c1.[Mn+2].[O-][Cl+3]([O-])([O-])[O-].[O-][Cl+3]([O-])([O-])[O-] [Complex 2, reference compound]
DPPH reduction [3]: fails to reduce DPPH to a noticeable degree
displacement of Mn(II) by Fe(II) ([4]; 0-60 min): negligible displacement
Mn(II) displaced by Fe(II) ([4]; 15 h): approximately 11%

cis-Dibromo(N,N′-bis(2,5-dihydroxybenzyl)-N,N′-bis(2-pyridinylmethyl)-1,2-ethanediamine)manganese(II) [Complex 3]
percentage of free Mn(II) ([5]; pH 7.0): 1.4%
manganese bound by some form of the ligand ([5]; pH 7.4): Over 99%
stability in aerobic solution [1]: moderately stable in aerobic aqueous solutions above pH 7.0
error introduced by air oxidation ([1]; aerated MeOH, 4 h): < 5%
decrease in intensity of 302 nm quinol feature ([1]; aerated MeOH, 12 h): about 10%
